pIC50: −log10 of the molar value. Calls of active or inactive are those of the source. The calls are words filed in the database; no cut-off is given here.
Assays:
WI-38 [1] = test: Antiproliferative activity against human WI-38 cells assessed as cell growth inhibition measured after 48 hrs by MTT assay; type: functional, cell-based; conditions: WI-38, 48 h
[2] = Toxicity in BALB/C nude mouse xenografted with human T24 cells assessed as decrease in body weight at 30 mg/kg, IG administered every 2 days for 14 days; type: organism-based, T-24; conditions: in vivo, po, 336 h, time 14 day
T-24 [3] = test: Antitumor activity against human T24 cells xenografted in BALB/c nude mouse assessed as tumor growth inhibition at 30 mg/kg, IG administered every 2 days for 14 days; type: functional; parameters: scale not given: the % may be the effect or the level left; conditions: time 14 day
[4] = Toxicity in BALB/C nude mouse xenografted with human T24 cells assessed as effect on heart at 30 mg/kg, IG administered every 2 days for 14 days by H and E staining based assay; type: organism-based, T-24; conditions: in vivo, po, 336 h, time 14 day
T-24 [5] = test: Induction of mitochondrial mediated apoptosis in human T24 cells assessed as decrease in Bcl-2 protein expression at 10 to 15 uM incubated for 24 hrs by Western blotting analysis; type: functional, cell-based; conditions: dose 10-15 µM
T-24 [6] = test: Antitumor activity against human T24 cells xenografted in BALB/c nude mouse assessed as reduction in tumor volume at 30 mg/kg, IG administered every 2 days for 14 days; type: functional; conditions: time 14 day
T-24 [7] = test: Cytotoxicity against human T24 cells assessed as decrease in cell viability measured after 48 hrs by MTT assay; type: toxicity, cell-based; conditions: t-24, 48 h, 20 µM, DDE = dose-dependent effect
[8] = Toxicity in BALB/C nude mouse xenografted with human T24 cells assessed as effect on liver at 30 mg/kg, IG administered every 2 days for 14 days by H and E staining based assay; type: organism-based, T-24; conditions: in vivo, po, 336 h, time 14 day
T-24 [9] = test: Antiproliferative activity against human T24 cells assessed as cell growth inhibition measured after 48 hrs by MTT assay; type: functional, cell-based; conditions: T-24, 48 h
T-24 [10] = test: Induction of cell cycle arrest in human T24 cells assessed as accumulation of cells at G2/M phase at 15 uM incubated for 24 hrs by propidium iodide/RNase A staining based flow cytometry analysis (reference value: 5.82 %); type: functional
T-24 [11] = test: Antitumor activity against human T24 cells xenografted in BALB/c nude mouse assessed as inhibition of tumor metastasis in liver at 30 mg/kg, IG administered every 2 days for 14 days; type: functional, organism-based; conditions: time 2.0 day
WI-38 [12] = test: Induction of apoptosis in human WI-38 cells at IC50; type: toxicity, cell-based
[13] = Toxicity in human WI-38 cells assessed as wound closure at 5 uM measured after 24 hrs by fluorescence microscopy based wound healing assay; type: cell-based; conditions: wi-38, 24 h
MGC-803 = test: Antiproliferative activity against human MGC-803 cells assessed as cell growth inhibition measured after 48 hrs by MTT assay; type: functional, cell-based; conditions: MGC-803, 48 h
SK-OV-3 = test: Antiproliferative activity against human SK-OV-3 cells assessed as cell growth inhibition measured after 48 hrs by MTT assay; type: functional, cell-based; conditions: SK-OV-3, 48 h
HepG2 = test: Antiproliferative activity against human HepG2 cells assessed as cell growth inhibition measured after 48 hrs by MTT assay; type: functional, cell-based; conditions: HepG2, 48 h
T-24 [14] = test: Induction of apoptosis in human T24 cells assessed as increase in caspase 3 activity at 15 uM (Rvb= 3.1%); type: functional
T-24 [15] = test: Induction of mitochondrial mediated apoptosis in human T24 cells assessed as increase in Bak protein expression at 10 to 15 uM incubated for 24 hrs by Western blotting analysis; type: functional, cell-based; conditions: dose 10-15 µM
T-24 [16] = test: Induction of apoptosis in human T24 cells assessed as increase in caspase 9 activity at 10 uM (Rvb= 7.2%); type: functional
[17] = Toxicity in BALB/C nude mouse xenografted with human T24 cells assessed as effect on lung at 30 mg/kg, IG administered every 2 days for 14 days by H and E staining based assay; type: organism-based, T-24; conditions: in vivo, po, 336 h, time 14 day
T-24 [18] = test: Induction of ROS accumulation in human T24 cells assessed as increase in intracellular ROS level at 10 uM by […] based flow cytometry; type: functional, cell-based
WI-38 [19] = test: Cytotoxicity against human WI-38 cells by MTT assay; type: toxicity, cell-based
[20] = Toxicity in BALB/C nude mouse xenografted with human T24 cells assessed as effect on kidney at 30 mg/kg, IG administered every 2 days for 14 days by H and E staining based assay; type: organism-based, T-24; conditions: in vivo, po, 336 h, time 14 day
T-24 [21] = test: Induction of apoptosis in human T24 cells assessed as necrotic cells at 2 uM incubated for 24 hrs by Annexin-V/PI staining based flow cytometry analysis (reference value: 1.92 %); type: functional
T-24 [22] = test: Induction of cell cycle arrest in human T24 cells assessed as accumulation of cells at G1 phase at 4 uM incubated for 24 hrs by propidium iodide/RNase A staining based flow cytometry analysis (reference value: 51.71 %); type: functional
T-24 [23] = test: Induction of apoptosis in human T24 cells assessed as viable cells at 2 uM incubated for 24 hrs by Annexin-V/PI staining based flow cytometry analysis (reference value: 94.3 %); type: functional; conditions: read-out: Activity
T-24 [24] = test: Induction of mitochondrial membrane potential dysfunction in human T24 cells assessed as mitochondrial fragment condensation at 2 to 4 uM by mito-tracker green dye based fluorescence microscopy; type: functional, cell-based; conditions: dose 2-4 µM
T-24 [25] = test: Induction of mitochondrial membrane potential dysfunction in human T24 cells assessed as change in morphology at 2 to 4 uM by Mitotracker green dye based fluorescence microscopy; type: functional, cell-based; conditions: dose 2-4 µM
T-24 [26] = test: Induction of apoptosis in human T24 cells assessed as late apoptotic cells at 6 uM incubated for 24 hrs by Annexin-V/PI staining based flow cytometry analysis (reference value: 0.543 %); type: functional
T-24 [27] = test: Induction of cell cycle arrest in human T24 cells assessed as accumulation of cells at S phase at 2 uM incubated for 24 hrs by propidium iodide/RNase A staining based flow cytometry analysis (reference value: 42.47 %); type: functional
T-24 [28] = test: Induction of apoptosis in human T24 cells assessed as late apoptotic cells at 2 uM incubated for 24 hrs by Annexin-V/PI staining based flow cytometry analysis (reference value: 0.543 %); type: functional
T-24 [29] = test: Induction of apoptosis in human T24 cells assessed as early apoptotic cells at 2 uM incubated for 24 hrs by Annexin-V/PI staining based flow cytometry analysis (reference value: 3.27 %); type: functional
T-24 [30] = test: Induction of cell cycle arrest in human T24 cells assessed as upregulation of CDK2 expression at 2 to 4 uM incubated for 24 hrs by chemiluminescence based Western blotting analysis; type: functional; conditions: dose 2-4 µM
T-24 [31] = test: Inhibition of colony formation in human T24 cells at 0.08 uM incubated for 24 hrs and measured for 10 days; type: functional, cell-based
T-24 [32] = test: Induction of mitochondrial membrane potential dysfunction in human T24 cells assessed as increase in fragmentation at 2 uM incubated for 24 hrs by TEM analysis; type: functional, cell-based
T-24 [33] = test: Induction of apoptosis in human T24 cells assessed as increase in caspase 9 activity at 0.5 uM (Rvb= 7.2%); type: functional
T-24 [34] = test: Induction of DNA damage in human T24 cells assessed as increase in […] p53 expression at 0.5 to 1 uM incubated for 24 hrs by Western blot analysis; type: functional, cell-based; conditions: dose 0.5-1 µM
T-24 [35] = test: Inhibition of cell migration in human T24 cells assessed as recovery of wound area at 0.25 uM measured after 24 hrs by wound healing assay based fluorescence microscopy; type: functional; parameters: scale not given: the % may be the effect or the level left

Row | Structure (SMILES) | pIC50 (WI-38 [1]) | Activity [2] | Activity (T-24 [3]) [%] | Activity [4] | Activity (T-24 [6]) [mm3] | Activity (T-24 [7]) | Activity [8] | pIC50 (T-24 [9]) | Activity (T-24 [11]) | Activity (WI-38 [12]) | pIC50 (MGC-803) | pIC50 (SK-OV-3) | pIC50 (HepG2) | Activity [17] | Activity (WI-38 [19]) | Activity [20] | Activity (T-24 [21]) [%] | viability at 2 µM (T-24 [23]) [%] | Activity (T-24 [28]) [%] | Activity (T-24 [29]) [%] | further results
1 | O=C1c2ccccc2-c2cccc3ccnc1c23 | 4.69 | Non-Toxic | 40.8 | Non-Toxic | 722.033 | Dde | Non-Toxic | 5.02 | Active | Non-Toxic | 4.90 | 4.43 | 4.91 | Non-Toxic | Non-Toxic | Non-Toxic | – | – | – | – | Activity (T-24 [5]): Active; Activity (T-24 [10]): 22.69%; Activity [13]: Non-Toxic; Activity (T-24 [14]): 25.5%; Activity (T-24 [15]): Active; Activity (T-24 [16]): 24.8%; Activity (T-24 [18]): Active
2 | O=C1c2cc([N+](=O)[O-])ccc2-c2ccc([N+](=O)[O-])c3ccnc1c23 | 4.69 | Non-Toxic | 30.7 | Non-Toxic | 846.52 | Dde | Non-Toxic | 5.70 | Active | Non-Toxic | 5.64 | 4.80 | 5.66 | Non-Toxic | Non-Toxic | Non-Toxic | 1.97 | 65.8 | 4.79 | 27.4 | Activity (T-24 [22]): 15.29%; Activity (T-24 [24]): Active; Activity (T-24 [25]): Active; Activity (T-24 [26]): 6.56%; Activity (T-24 [27]): 66.71%; Activity (T-24 [30]): Active; inhibition (T-24 [31]): Active; Activity (T-24 [32]): Active
3 | O=C1c2ccccc2-c2ccc([N+](=O)[O-])c3ccnc1c23 | 4.83 | Non-Toxic | 49.5 | Non-Toxic | 605.28 | Dde | Non-Toxic | 6.30 | Active | Non-Toxic | 5.96 | 5.05 | 5.89 | Non-Toxic | Non-Toxic | Non-Toxic | 0.914 | 32.7 | 8.68 | 57.7 | Activity (T-24 [33]): 26.9%; Activity (T-24 [34]): Active; Activity (T-24 [35]): 15.9%
